This passage reports IC50 results from US7902373B2 (Pfizer Inc, priority 2006, dated 2011).

As a reminder, the IC50 is the concentration at which inhibition is half-maximal.

This test has as its target human recombinant H-PGDS (Homo sapiens, UniProt O60760). The test can be described thus: Fluorescence intensity h-PGDS TBA enzyme assay. In kind it is biochemical. Conditions: Examples up to 622 (and 3a, 3b).

Sequence of human recombinant H-PGDS (O60760 whole entry): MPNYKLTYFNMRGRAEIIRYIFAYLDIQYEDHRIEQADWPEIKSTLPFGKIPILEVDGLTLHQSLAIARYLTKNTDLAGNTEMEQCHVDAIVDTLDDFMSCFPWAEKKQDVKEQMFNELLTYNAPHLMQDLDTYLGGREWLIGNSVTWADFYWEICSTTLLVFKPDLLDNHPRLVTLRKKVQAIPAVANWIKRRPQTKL

Regarding `COc1ccc(F)c(CN2CCC(NC(=O)c3ccc(-c4cccc(F)c4)nc3)CC2)c1` [Example 323, N-[1-(2-Fluoro-5-methoxybenzyl)piperidin-4-yl]-6-(3-fluorophenyl)nicotinamide], the IC50 was determined as 0.622 nM.

Regarding `COc1ccc(CN2CCC(NC(=O)c3ccc(-c4cccc(F)c4)nc3)CC2)c(F)c1` [Example 324, N-[1-(2-Fluoro-4-methoxybenzyl)piperidin-4-yl]-6-(3-fluorophenyl)nicotinamide], the IC50 came to 0.531 nM.

As for `CCCCCN1CCC(NC(=O)c2ccc(-c3cccc(F)c3)nc2)CC1` [Example 325, 6-(3-Fluorophenyl)-N-(1-pentylpiperidin-4-yl)nicotinamide], the IC50 worked out at 4.01 nM.

In the case of `CC(C)Oc1ccccc1CN1CCC(NC(=O)c2ccc(-c3cccc(F)c3)nc2)CC1` [Example 326, 6-(3-Fluorophenyl)-N-[1-(2-isopropoxybenzyl)piperidin-4-yl]nicotinamide], the IC50 was found to be 2.45 nM.

Consider `COCc1cc(CN2CCC(NC(=O)c3ccc(-c4cccc(F)c4)nc3)CC2)ccc1OC` [Example 327, 6-(3-Fluorophenyl)-N-{1-[4-methoxy-3-(methoxymethyl)benzyl]piperidin-4-yl}nicotinamide], for which the IC50 was found to be 1.55 nM.

For `Cc1nn(C)cc1CN1CCC(NC(=O)c2ccc(-c3cccc(F)c3)nc2)CC1` [Example 328, N-{1-[(1,3-Dimethyl-1H-pyrazol-4-yl)methyl]piperidin-4-yl}-6-(3-fluorophenyl)nicotinamide], the IC50 worked out at 0.566 nM.

As for `CCn1ncc(CN2CCC(NC(=O)c3ccc(-c4cccc(F)c4)nc3)CC2)c1C` [Example 329, N-{1-[(1-Ethyl-5-methyl-1H-pyrazol-4-yl)methyl]piperidin-4-yl}-6-(3-fluorophenyl)nicotinamide], the IC50 amounted to 1.94 nM.

Turning to `O=C(NC1CCN(Cc2ccc(-c3ncccn3)cc2)CC1)c1ccc(-c2cccc(F)c2)nc1` [Example 330, 6-(3-Fluorophenyl)-N-[1-(4-pyrimidin-2-ylbenzyl)piperidin-4-yl]nicotinamide], the IC50 amounted to 1.71 nM.

As for `O=C(NC1CCN(Cc2cc(F)cc(F)c2F)CC1)c1ccc(-c2cccc(F)c2)nc1` [Example 331, 6-(3-Fluorophenyl)-N-[1-(2,3,5-trifluorobenzyl)piperidin-4-yl]nicotinamide], the IC50 worked out at 2.71 nM.

Regarding `O=C(NC1CCN(Cc2cc(F)c(F)c(F)c2)CC1)c1ccc(-c2cccc(F)c2)nc1` [Example 332, 6-(3-fluorophenyl)-N-[1-(345-trifluorobenzyl)piperidin-4-yl]nicotinamide], the IC50 stood at 1.19 nM.

For the compound `CC(C)(C)OC(=O)N1CCCC(CN2CCC(NC(=O)c3ccc(-c4cccc(F)c4)nc3)CC2)C1` (centres unmarked) [Example 333, tert-Butyl 3-{[4-({[6-(3-fluorophenyl)pyridin-3-yl]carbonyl}amino)piperidin-1-yl]methyl}piperidine-1-carboxylate], the IC50 was 1.04 nM.

For `CC(C)(C)OC(=O)NC1(CN2CCC(NC(=O)c3ccc(-c4cccc(F)c4)nc3)CC2)CCC1` [Example 334, tert-Butyl (1-{[4-({[6-(3-fluorophenyl)pyridin-3-yl]carbonyl}amino)piperidin-1-yl]methyl}cyclobutyl)carbamate], the IC50 turned out to be 2.74 nM.

For the compound `Cc1nn(-c2ccccc2)c(C)c1CN1CCC(NC(=O)c2ccc(-c3cccc(F)c3)nc2)CC1` [Example 335, N-{1-[(3,5-Dimethyl-1-phenyl-1H-pyrazol-4-yl)methyl]piperidin-4-yl}-6-(3-fluorophenyl)nicotinamide], the IC50 came to 0.776 nM.

`CC(CCCC(C)(C)O)CCN1CCC(NC(=O)c2ccc(-c3cccc(F)c3)nc2)CC1` (centres unmarked) [Example 336, 6-(3-Fluorophenyl)-N-[1-(7-hydroxy-3,7-dimethyloctyl)piperidin-4-yl]nicotinamide]: the IC50 was found to be 1.82 nM.

Take `O=C(NC1CCN(Cc2nc3ccccc3[nH]2)CC1)c1ccc(-c2cccc(F)c2)nc1` [Example 337, N-[1-(1H-Benzimidazol-2-ylmethyl)piperidin-4-yl]-6-(3-fluorophenyl)nicotinamide]: the IC50 worked out at 1.42 nM.

As to `CCOc1ccc2nc(CN3CCC(NC(=O)c4ccc(-c5cccc(F)c5)nc4)CC3)ccc2c1` [Example 338], the IC50 was 62.7 nM.

Consider `COC(=O)Cn1cc(CN2CCC(NC(=O)c3ccc(-c4cccc(F)c4)nc3)CC2)c2ccccc21` [Example 339, Methyl (3-{[4-({[6-(3-fluorophenyl)pyridin-3-yl]carbonyl}amino)piperidin-1-yl]methyl}-1H-indol-1-yl)acetate], for which the IC50 turned out to be 1.17 nM.

Take `O=C(NC1CCN(Cc2nc3c(s2)CCCC3)CC1)c1ccc(-c2cccc(F)c2)nc1` [Example 340, 6-(3-Fluorophenyl)-N-[1-(4,5,6,7-tetrahydro-1,3-benzothiazol-2-ylmethyl)piperidin-4-yl]nicotinamide]: the IC50 came to 1.17 nM.

Regarding `O=C(NC1CCN(CC2=Cc3ccccc3OC2)CC1)c1ccc(-c2cccc(F)c2)nc1` [Example 341, N-[1-(2H-Chromen-3-ylmethyl)piperidin-4-yl]-6-(3-fluorophenyl)nicotinamide], the IC50 was found to be 0.485 nM.

Turning to `O=C(NC1CCN(Cc2ccccc2-c2cncnc2)CC1)c1ccc(-c2cccc(F)c2)nc1` [Example 342, 6-(3-Fluorophenyl)-N-[1-(2-pyrimidin-5-ylbenzyl)piperidin-4-yl]nicotinamide], the IC50 was 0.281 nM.

Consider `O=C(NC1CCN(Cc2cccn3cc(Br)nc23)CC1)c1ccc(-c2cccc(F)c2)nc1` [Example 343, N-{1-[(2-Bromoimidazo[1,2-a]pyridin-8-yl)methyl]piperidin-4-yl}-6-(3-fluorophenyl)nicotinamide], for which the IC50 was determined as 1.9 nM.

Consider `Cc1onc(-c2ccccc2)c1CN1CCC(NC(=O)c2ccc(-c3cccc(F)c3)nc2)CC1` [Example 344, 6-(3-Fluorophenyl)-N-{1-[(5-methyl-3-phenylisoxazol-4-yl)methyl]piperidin-4-yl}nicotinamide], for which the IC50 was found to be 0.174 nM.

Regarding `CC(C)(C)OC(=O)N1CCC(CN2CCC(NC(=O)c3ccc(-c4cccc(F)c4)nc3)CC2)C1` (centres unmarked) [Example 345, tert-Butyl 3-{[4-({[6-(3-fluorophenyl)pyridin-3-yl]carbonyl}amino)piperidin-1-yl]methyl}pyrrolidine-1-carboxylate], the 50% inhibitory concentration (IC50) came out at 0.508 nM.

As to `CC(C)(C)C(=O)Nc1ncccc1CN1CCC(NC(=O)c2ccc(-c3cccc(F)c3)nc2)CC1` [Example 346, N-[1-({2-[(2,2-Dimethylpropanoyl)amino]pyridin-3-yl}methyl)piperidin-4-yl]-6-(3-fluorophenyl)nicotinamide], the IC50 came to 4.07 nM.

With `CC(C)(CNC(=O)OC(C)(C)C)CN1CCC(NC(=O)c2ccc(-c3cccc(F)c3)nc2)CC1` [Example 347, tert-Butyl {3-[4-({[6-(3-fluorophenyl)pyridin-3-yl]carbonyl}amino)piperidin-1-yl]-2,2-dimethylpropyl}carbamate], the 50% inhibitory concentration (IC50) stood at 0.578 nM.

In the case of `O=C(NC1CCN(Cc2c(F)c(F)cc(F)c2F)CC1)c1ccc(-c2cccc(F)c2)nc1` [Example 348, 6-(3-Fluorophenyl)-N-[1-(2,3,5,6-tetrafluorobenzyl)piperidin-4-yl]nicotinamide], the IC50 amounted to 0.612 nM.

`O=C(NC1CCN(Cc2c[nH]c3c(F)c(F)c(F)c(F)c23)CC1)c1ccc(-c2cccc(F)c2)nc1` [Example 349, 6-(3-Fluorophenyl)-N-{1-[(4,5,6,7-tetrafluoro-1H-indol-3-yl)methyl]piperidin-4-yl}nicotinamide]: the 50% inhibitory concentration (IC50) stood at 2.96 nM.

Take `O=C(NC1CCN(CC2CCOC2)CC1)c1ccc(-c2cccc(F)c2)nc1` (centres unmarked) [Example 350, 6-(3-Fluorophenyl)-N-[1-(tetrahydrofuran-3-ylmethyl)piperidin-4-yl]nicotinamide]: the 50% inhibitory concentration (IC50) worked out at 0.247 nM.

As for `Cc1cc(CN2CCC(NC(=O)c3ccc(-c4cccc(F)c4)nc3)CC2)no1` [Example 351, 6-(3-Fluorophenyl)-N-{1-[(5-methylisoxazol-3-yl)methyl]piperidin-4-yl}nicotinamide], the IC50 was found to be 0.531 nM.

Regarding `Cn1nccc1CN1CCC(NC(=O)c2ccc(-c3cccc(F)c3)nc2)CC1` [Example 352, 6-(3-Fluorophenyl)-N-{1-[(1-methyl-1H-pyrazol-5-yl)methyl]piperidin-4-yl}nicotinamide], the IC50 is 0.625 nM.

Turning to `COc1ccc(CN2CCC(NC(=O)c3ccc(-c4cccc(F)c4)nc3)CC2)cn1` [Example 353, 6-(3-Fluorophenyl)-N-{1-[(6-methoxypyridin-3-yl)methyl]piperidin-4-yl}nicotinamide], the IC50 came out at 0.959 nM.

Consider `Cc1ccc(CN2CCC(NC(=O)c3ccc(-c4cccc(F)c4)nc3)CC2)cn1` [Example 354, 6-(3-Fluorophenyl)-N-{1-[(6-methylpyridin-3-yl)methyl]piperidin-4-yl}nicotinamide], for which the IC50 amounted to 2.92 nM.

`Cc1cc(CN2CCC(NC(=O)c3ccc(-c4cccc(F)c4)nc3)CC2)ccn1` [Example 355, 6-(3-Fluorophenyl)-N-{1-[(2-methylpyridin-4-yl)methyl]piperidin-4-yl}nicotinamide]: the IC50 worked out at 0.513 nM.

Consider `Cc1c(CN2CCC(NC(=O)c3ccc(-c4cccc(F)c4)nc3)CC2)cnn1-c1ccccc1` [Example 356, 6-(3-Fluorophenyl)-N-{1-[(5-methyl-1-phenyl-1H-pyrazol-4-yl)methyl]piperidin-4-yl}nicotinamide], for which the IC50 came to 2 nM.

In the case of `Cc1nc(-c2ccccc2)ncc1CN1CCC(NC(=O)c2ccc(-c3cccc(F)c3)nc2)CC1` [Example 357, 6-(3-Fluorophenyl)-N-{1-[(4-methyl-2-phenylpyrimidin-5-yl)methyl]piperidin-4-yl}nicotinamide], the IC50 came out at 6.66 nM.

As to `O=C(NC1CCN(Cc2ccc(Oc3ccccc3)nc2)CC1)c1ccc(-c2cccc(F)c2)nc1` [Example 358, 6-(3-Fluorophenyl)-N-{1-[(6-phenoxypyridin-3-yl)methyl]piperidin-4-yl}nicotinamide], the IC50 was determined as 1.72 nM.

For the compound `O=C(NC1CCN(Cc2ccno2)CC1)c1ccc(-c2cccc(F)c2)nc1` [Example 359, 6-(3-Fluorophenyl)-N-[1-(isoxazol-5-ylmethyl)piperidin-4-yl]nicotinamide], the IC50 was found to be 0.443 nM.

As to `CCC(C)CCN1CCC(NC(=O)c2ccc(-c3cccc(F)c3)nc2)CC1` (centres unmarked) [Example 360, 6-(3-Fluorophenyl)-N-[1-(3-methylpentyl)piperidin-4-yl]nicotinamide], the IC50 came out at 2.76 nM.
